Here are results for 21 molecules from ChEMBL document CHEMBL4118260, “Structure-based drug design to overcome species differences in kallikrein 7 inhibition of 1,3,6-trisubstituted 1,4-diazepan-7-ones” (Bioorg Med Chem, 2018).

Experiment [1] deals with Kallikrein-7 (Mus musculus) (UniProt Q91VE3). Nature of the experiment: Inhibition of mouse KLK7 at 30 uM using MOCAcArg-Pro-Lys-Pro-Val-Glu-Nva-Trp-Arg-Lys(Dnp)-NH2 as substrate preincubated for 10 mins followed by substrate addition measured after 30 mins by fluorescence assay relative to control.
The target of experiment [2] is Kallikrein-7 (Mus musculus, UniProt Q91VE3). Description: Inhibition of mouse KLK7 using MOCAcArg-Pro-Lys-Pro-Val-Glu-Nva-Trp-Arg-Lys(Dnp)-NH2 as substrate preincubated for 10 mins followed by substrate addition measured after 30 mins by fluorescence assay.
Experiment [3] concerns the target Kallikrein-7 (Homo sapiens, UniProt P49862). Nature of the experiment: Inhibition of recombinant human C-terminal His10-tagged KLK7 (E23 to H252 residues) using MOCAcArg-Pro-Lys-Pro-Val-Glu-Nva-Trp-Arg-Lys(Dnp)-NH2 as substrate preincubated for 10 mins followed by substrate addition measured after 30 mins by fluorescence assay.

Bounds are passed on as bounds.

Sequence of Kallikrein-7 (Homo sapiens, UniProt P49862) (P49862 whole entry, the tested form may be a part): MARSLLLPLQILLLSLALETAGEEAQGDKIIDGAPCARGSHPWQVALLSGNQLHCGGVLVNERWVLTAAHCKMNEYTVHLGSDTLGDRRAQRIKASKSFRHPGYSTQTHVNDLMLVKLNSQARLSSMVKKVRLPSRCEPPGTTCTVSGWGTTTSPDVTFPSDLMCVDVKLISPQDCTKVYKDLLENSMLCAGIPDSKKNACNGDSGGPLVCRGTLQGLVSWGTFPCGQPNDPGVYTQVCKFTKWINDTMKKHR
Sequence of Kallikrein-7 (Mus musculus, UniProt Q91VE3) (Q91VE3 whole entry, the tested form may be a part): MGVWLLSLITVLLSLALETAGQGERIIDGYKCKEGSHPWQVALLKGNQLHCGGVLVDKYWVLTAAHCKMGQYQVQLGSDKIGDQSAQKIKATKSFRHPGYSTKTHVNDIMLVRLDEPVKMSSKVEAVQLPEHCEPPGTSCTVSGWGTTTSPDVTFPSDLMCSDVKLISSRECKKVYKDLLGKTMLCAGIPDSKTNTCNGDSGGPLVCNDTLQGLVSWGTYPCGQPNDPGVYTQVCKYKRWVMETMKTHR
Sequence of Kallikrein-7 (Mus musculus) (Q91VE3 whole entry): as the sequence (Q91VE3 whole entry, the tested form may be a part) above

The inhibition is the relative decrease from the control value, in per cent. What is called IC50 is the concentration that inhibits the measured activity by half. Regarding `CN(C)/N=C1/CN(CC(=O)Nc2cccc(-c3cnn(C)c3)c2)C(=O)C(Cc2ccccc2C#N)CN1` (racemic), the inhibition in experiment [1] came to 22%. The IC50 is greater than 30 µM on Kallikrein-7 [2] and 17 µM on Kallikrein-7 [3].

`CN(C)/N=C1/CN(CC(=O)Nc2cccc(-c3cnn(C)c3)c2)C(=O)C(Cc2c(F)cccc2F)CN1` (racemic): the values for the IC50 on Kallikrein-7 [2] and at Kallikrein-7 [3] were greater than 30 µM and 6.9 µM, respectively.

Take `CN(C)/N=C1/CN(CC(=O)Nc2cccc(-c3cnn(C)c3)c2)C(=O)C(Cc2c(Cl)cccc2Cl)CN1` (single isomer, unassigned; (-)): the values for the IC50 at Kallikrein-7 [2] and at Kallikrein-7 [3] were 0.7 µM and 0.38 µM, respectively.

Turning to `Cc1cccc(Cl)c1CC1CN/C(=N\N(C)C)CN(CC(=O)Nc2cccc(-c3cnn(C)c3)c2)C1=O` (racemic), the IC50 on Kallikrein-7 [2] came out at 1.6 µM; on Kallikrein-7 [3], 1.5 µM.

Consider `Cc1cccc(C#N)c1CC1CN/C(=N\N(C)C)CN(CC(=O)Nc2cccc(-c3cnn(C)c3)c2)C1=O` (racemic), for which the figures for the IC50 at Kallikrein-7 [2] and at Kallikrein-7 [3] were 7.1 µM and 11 µM, respectively.

On to `COc1ccc(Cl)cc1C[C@@H]1CN/C(=N\N(C)C)CN(CC(=O)Nc2cccc(C(=O)O)c2)C1=O`, for which the inhibition in experiment [1] stood at 11%. Moreover, the IC50 against Kallikrein-7 [2] was greater than 30 µM.

In the case of `CN(C)/N=C1/CN(CC(=O)Nc2cccc(-c3cnn(C)c3)c2)C(=O)C(Cc2c(Cl)cccc2Cl)CN1` (racemic), the IC50 at Kallikrein-7 [2] is 1.2 µM; at Kallikrein-7 [3] it was 0.79 µM.

For the molecule `COc1cc(Cl)ccc1CC1CN/C(=N\N(C)C)CN(CC(=O)Nc2cccc(-c3cnn(C)c3)c2)C1=O` (racemic), the inhibition in experiment [1] was -4.1%. Moreover, the IC50 against Kallikrein-7 [2] is greater than 30 µM; at Kallikrein-7 [3], 7.5 µM.

For the molecule `CN(C)/N=C1/CN(CC(=O)Nc2cccc(-c3cnn(C)c3)c2)C(=O)C(Cc2c(F)cccc2Cl)CN1` (racemic), the IC50 worked out at 6 µM against Kallikrein-7 [2] and 0.94 µM at Kallikrein-7 [3].

On to `COc1ccc(Cl)cc1C[C@@H]1CN/C(=N\N(C)C)CN(CC(=O)Nc2cccc(-c3cnn(C)c3)c2)C1=O`, for which the inhibition in experiment [1] is -1.2%. The molecule also came in with an IC50 against Kallikrein-7 [2] greater than 30 µM.

With `COc1cccc(F)c1CC1CN/C(=N\N(C)C)CN(CC(=O)Nc2cccc(-c3cnn(C)c3)c2)C1=O` (racemic), the IC50 at Kallikrein-7 [2] is greater than 30 µM; at Kallikrein-7 [3] it was 6.8 µM.

With `Cc1cccc(F)c1CC1CN/C(=N\N(C)C)CN(CC(=O)Nc2cccc(-c3cnn(C)c3)c2)C1=O` (racemic), the IC50 was determined as 7.7 µM against Kallikrein-7 [2] and 2.3 µM on Kallikrein-7 [3].

For the molecule `Cc1cccc(C)c1CC1CN/C(=N\N(C)C)CN(CC(=O)Nc2cccc(-c3cnn(C)c3)c2)C1=O` (racemic), the IC50 at Kallikrein-7 [2] was 3.8 µM; on Kallikrein-7 [3], 5.2 µM.

For the molecule `COc1ccc(Cl)cc1C[C@@H]1CN/C(=N\N(C)C)CN([C@@H](C)C(=O)Nc2cccc(-c3cnn(C)c3)c2)C1=O`, in experiment [1], the inhibition was found to be 32%. This molecule also yielded a concentration for half-maximal inhibition (IC50) against Kallikrein-7 [2] greater than 30 µM.

Consider `COc1ccccc1C[C@@H]1CN/C(=N\N(C)C)CN(CC(=O)Nc2cccc(-c3cnn(C)c3)c2)C1=O`, for which the inhibition in experiment [1] turned out to be 41%. Besides, the IC50 on Kallikrein-7 [2] was greater than 30 µM; at Kallikrein-7 [3] it was 2.4 µM.

As for `COc1cccc(C)c1CC1CN/C(=N\N(C)C)CN(CC(=O)Nc2cccc(-c3cnn(C)c3)c2)C1=O` (racemic), the IC50 worked out at 19 µM against Kallikrein-7 [2] and 13 µM at Kallikrein-7 [3].

With `CN(C)/N=C1/CN(CC(=O)Nc2cccc(-c3cnn(C)c3)c2)C(=O)C(Cc2c(Cl)cccc2Cl)CN1` (stereo in doubt; (+)-22g), the results for the IC50 against Kallikrein-7 [2] and at Kallikrein-7 [3] were 16 µM and greater than 30 µM, respectively.

As to `CN(C)/N=C1/CN(CC(=O)Nc2cccc(-c3cnn(C)c3)c2)C(=O)C(Cc2ccccc2Cl)CN1` (racemic), in experiment [1], the inhibition came to 59%. The IC50 was 21 µM at Kallikrein-7 [2] and 2.5 µM on Kallikrein-7 [3].

For the molecule `CN(C)/N=C1/CN(CC(=O)Nc2cccc(-c3cnn(C)c3)c2)C(=O)C(Cc2c(F)cccc2C(F)(F)F)CN1` (racemic), the IC50 is greater than 30 µM on Kallikrein-7 [2] and 2.7 µM at Kallikrein-7 [3].

As to `CN(C)/N=C1/CN(CC(=O)Nc2cccc(-c3cnn(C)c3)c2)C(=O)C(Cc2c(Cl)cccc2C#N)CN1` (racemic), the IC50 against Kallikrein-7 [2] came out at 7.8 µM; at Kallikrein-7 [3], 11 µM.

Regarding `COc1cccc(Cl)c1CC1CN/C(=N\N(C)C)CN(CC(=O)Nc2cccc(-c3cnn(C)c3)c2)C1=O` (racemic), the inhibition in experiment [1] stood at 67%. The values for the IC50 against Kallikrein-7 [2] and on Kallikrein-7 [3] were 14 µM and 11 µM, respectively.
